{
  "source": "patent US20250208141A1",
  "about": "“FLUORESCENT PROBE FOR LABELING M1 MACROPHAGES, AND M1 MACROPHAGE MONITORING SYSTEM USING SAME” (INSTITUTE FOR BASIC SCIENCE, priority 2022, published 2025)",
  "key": {"GLUT": {"tested_on": "GLUT", "test": "GLUT inhibition test (CDr17 absorption) with cytochalasin B19", "assay_type": "cell-based, mouse", "details": "inhibitor 0, 0.03, 0.1, 0.3 μM, 30 minutes, M1 macrophage", "method": "Next, a GLUT inhibition test was performed using cytochalasin B19 which is a general GLUT inhibitor. An inhibitor at various concentrations (0, 0.03, 0.1, 0.3 μM) was cultured for 30 minutes with the M1 macrophage, cells were treated with CDr17, and the fluorescence intensity was analyzed (FIG. 3)."}, "GLUT1": {"target": "T1, GLUT1 (Mus musculus, UniProt P17809)", "T1 construct": "endogenous in cells; host or cells: M1 macrophages of RAW264.7 cells", "T1 sequence (P17809 1-492)": "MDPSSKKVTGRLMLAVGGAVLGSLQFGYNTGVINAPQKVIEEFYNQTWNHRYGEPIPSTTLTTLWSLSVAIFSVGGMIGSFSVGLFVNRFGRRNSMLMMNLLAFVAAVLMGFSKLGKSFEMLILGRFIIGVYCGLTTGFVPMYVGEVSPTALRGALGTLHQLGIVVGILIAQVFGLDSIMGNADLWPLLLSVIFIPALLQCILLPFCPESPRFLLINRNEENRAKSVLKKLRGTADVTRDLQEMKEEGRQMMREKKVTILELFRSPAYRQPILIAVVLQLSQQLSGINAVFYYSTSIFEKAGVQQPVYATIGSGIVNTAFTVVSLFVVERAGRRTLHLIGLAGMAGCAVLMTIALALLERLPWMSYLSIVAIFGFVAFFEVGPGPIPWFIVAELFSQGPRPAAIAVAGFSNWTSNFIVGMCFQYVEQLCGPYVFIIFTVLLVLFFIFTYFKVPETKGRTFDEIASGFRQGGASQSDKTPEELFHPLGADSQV", "test": "GLUT1 blocking with STF-31, then CDr17 fluorescence in M1 macrophages", "assay_type": "cell-based", "details": "M1 macrophage of RAW264.7; 1 μM CDr17 for 30 minutes", "method": "Next, the function of GLUT1 was blocked using STF-3121 which is a selective inhibitor of GLUT1 in the M1 macrophage of RAW264.7, and then a treatment was performed with 1 μM CDr17 for 30 minutes to monitor the inhibition effect."}, "GLUTs": {"tested_on": "GLUTs", "test": "Glucose (D/L-glucose) competition test with CDr17 in M1 macrophages", "assay_type": "cell-based, mouse", "details": "D/L-glucose 0, 20, 60 mM; CDr17 1 μM; M1 macrophages from RAW264.7", "method": "In order to analyze a mechanism for selectivity of the compounds (probes) according to the examples, test was performed as follows, using the CDr17 compound of Example 8. First, in order to analyze whether the selectivity of CDr17 is related to GLUTs in cells, a glucose competition test was performed by the following method. As an M1 macrophage medium having no glucose differentiated in RAW264.7 cells, a medium comprising 10% Heat-Inactivated Fetal Bovine Serum (Gibco) and 1% penicillin streptomycin (WELGENE) comprising D/L-glucose at various concentrations (0 (Cont.), 20, 60 mM) were cultured for 5 minutes, and CDr17 (1 μM) was added. The nucleus was stained with Hoechst33342 (1 μg/mL), and the medium was replaced with a fresh medium after 30 minutes. Fluorescence microscopic imaging was performed with Operetta High Throughput screening with a 40× objective lens."}, "[1]": {"tested_on": "THP-1 M0, M1, M2 macrophages", "test": "M1 macrophage selectivity by comparison with 2-NBDG in THP-1 macrophages", "assay_type": "cell-based, human", "text": "In order to compare the selectivity of CDr17 for M1 macrophages, 2-NBDG which is a generally used fluorescent probe was applied to THP-1 which is a macrophage cell line of human origin and tested."}},
  "data": [
    {"molecule": "cytochalasin B19", "values": [
      {"measurement": "effect on absorption of CDr17 through GLUT", "setting": "GLUT", "value": "blocked dose-dependently absorption of CDr17 through GLUT"}
    ]},
    {"molecule": "CC(C)(C)c1ccc(S(=O)(=O)NCc2ccc(C(=O)Nc3cccnc3)cc2)cc1", "note": "[STF-31]", "values": [
      {"measurement": "entry of CDr17 into M1 cells", "setting": "GLUT1", "value": "significantly decreased dependently on the dose"}
    ]},
    {"molecule": "O=C[C@@H](O)[C@H](O)[C@@H](O)[C@@H](O)CO", "note": "[L-glucose]", "values": [
      {"measurement": "effect on CDr17 fluorescence intensity / absorption by the M1 macrophage", "setting": "GLUTs", "value": "did not affect absorption of CDr17"}
    ]},
    {"molecule": "O=C[C@H](O)[C@@H](O)[C@H](O)[C@H](O)CO", "note": "[D-glucose]", "values": [
      {"measurement": "effect on CDr17 fluorescence intensity / absorption by the M1 macrophage", "setting": "GLUTs", "value": "decreased dose-dependently"}
    ]},
    {"molecule": "O=[N+]([O-])c1ccc(N[C@H]2C(O)O[C@H](CO)[C@@H](O)[C@@H]2O)c2nonc12", "note": "(stereo partly drawn) [Example 2-NBDG, 2-NBDG]", "values": [
      {"measurement": "ability to distinguish M1 macrophage from M0 and M2 by fluorescence intensity", "setting": "[1]; THP-1, CDr17 0.5 μM, 2-NBDG 1, 5, 10, 50, 100 μM", "value": "M1 and M2 macrophages were not able to be clearly distinguished at any concentration"},
      {"measurement": "concentration needed for observation of fluorescence intensity", "setting": "[1]; THP-1 macrophages", "value": 100, "unit": "µM"}
    ]}
  ]
}
